Measurements from publication PMC6664820, “Novel natural and synthetic inhibitors of solute carriers SGLT1 and SGLT2” (Pharmacology Research & Perspectives, 2019).
Structures can show the parent of a compound that is named as a salt. Non-standard residues stand in square brackets, D forms with d. Residues, ends and D or L forms follow the SMILES beside them. pGlu = O=C1CC[CH](C(=O)O)N1

Key:
hSGLT2 = target: T1, hSGLT2 (Homo sapiens, UniProt P31639); assay: SGLT2 inhibition assay for validation of screening hits and similar compounds (1‐NBD‐glucose uptake, CHO‐hSGLT2 cells); type: cell-based; parameters: activity: dose or concentration left out as unconfirmed; conditions: for remaining activity at 5 µM / remaining activity at 50 µM: 0.5 h, concentration not given, read-out: NORMALIZED SGLT2 ACTIVITY (%); for remaining activity at 5 µM / remaining activity at 50 µM / activity: mean; for activity: compound, normalized 1-NBD-glucose uptake, CHO-hSGLT2 cells; for SGLT2/SGLT1 ACTIVITY RATIO 5 uM Mean: ratio of normalized SGLT2 to SGLT1 activity at 5 uM; for SGLT2/SGLT1 ACTIVITY RATIO, first concentration / SGLT2/SGLT1 ACTIVITY RATIO, second concentration: ratio of normalized SGLT2 to SGLT1 activity
T1 sequence (P31639 1-672): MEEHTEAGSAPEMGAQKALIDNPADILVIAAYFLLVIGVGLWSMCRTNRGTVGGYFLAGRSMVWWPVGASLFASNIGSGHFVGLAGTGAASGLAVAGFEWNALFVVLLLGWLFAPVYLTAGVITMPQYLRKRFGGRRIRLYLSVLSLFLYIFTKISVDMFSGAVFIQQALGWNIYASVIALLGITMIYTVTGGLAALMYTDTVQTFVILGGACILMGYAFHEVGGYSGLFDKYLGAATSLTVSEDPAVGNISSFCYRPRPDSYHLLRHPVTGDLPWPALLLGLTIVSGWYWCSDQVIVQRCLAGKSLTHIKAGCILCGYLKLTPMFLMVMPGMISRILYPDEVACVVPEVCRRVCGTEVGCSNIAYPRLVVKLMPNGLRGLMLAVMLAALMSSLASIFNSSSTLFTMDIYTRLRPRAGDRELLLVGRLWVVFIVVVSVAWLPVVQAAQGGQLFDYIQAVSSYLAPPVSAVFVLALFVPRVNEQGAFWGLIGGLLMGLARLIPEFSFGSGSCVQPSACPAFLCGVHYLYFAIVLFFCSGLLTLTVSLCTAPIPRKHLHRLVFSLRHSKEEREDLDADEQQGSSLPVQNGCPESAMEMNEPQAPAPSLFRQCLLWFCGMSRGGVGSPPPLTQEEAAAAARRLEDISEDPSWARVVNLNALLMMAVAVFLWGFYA

SGLT1 = target: T2, SGLT1 (Homo sapiens, UniProt P13866); assay: SGLT1 inhibition assay for validation of screening hits and similar compounds (1‐NBD‐glucose uptake, CHO‐hSGLT1 cells); type: cell-based; parameters: activity: dose or concentration left out as unconfirmed; conditions: for remaining activity at 5 µM / remaining activity at 50 µM: 0.5 h, concentration not given, read-out: NORMALIZED SGLT1 ACTIVITY (%); for remaining activity at 5 µM / remaining activity at 50 µM / activity: mean; for activity: compound, normalized 1-NBD-glucose uptake, CHO-hSGLT1 cells; for SGLT1/2 inhibition stated in words: SGLT1 and/or SGLT2, discussion statements; for SGLT1 inhibition / inhibition at 50 µM: mean inhibition with 50 μmol/L inhibitor; for inhibition at 50 µM: read-out: SGLT1 inhibition
T2 sequence (P13866 1-664): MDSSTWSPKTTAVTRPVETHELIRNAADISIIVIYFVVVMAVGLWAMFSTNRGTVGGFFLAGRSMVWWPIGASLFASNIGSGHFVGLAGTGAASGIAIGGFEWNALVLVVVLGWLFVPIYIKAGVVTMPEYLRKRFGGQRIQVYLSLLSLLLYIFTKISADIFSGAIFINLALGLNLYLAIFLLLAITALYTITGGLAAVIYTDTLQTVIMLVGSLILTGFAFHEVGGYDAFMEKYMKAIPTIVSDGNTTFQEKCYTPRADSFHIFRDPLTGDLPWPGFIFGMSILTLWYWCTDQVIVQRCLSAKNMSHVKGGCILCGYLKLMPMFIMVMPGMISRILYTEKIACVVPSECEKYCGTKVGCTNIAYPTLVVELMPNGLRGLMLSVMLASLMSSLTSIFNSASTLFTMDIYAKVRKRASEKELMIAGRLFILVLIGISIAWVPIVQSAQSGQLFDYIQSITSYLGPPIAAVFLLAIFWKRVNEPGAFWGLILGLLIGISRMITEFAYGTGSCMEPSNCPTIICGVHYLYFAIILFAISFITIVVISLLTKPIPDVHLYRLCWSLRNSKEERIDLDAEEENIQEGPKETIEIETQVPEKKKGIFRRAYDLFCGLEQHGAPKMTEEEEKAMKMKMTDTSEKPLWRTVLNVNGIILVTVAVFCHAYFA

Structure (SMILES) | remaining activity at 5 µM (hSGLT2) [%] | remaining activity at 50 µM (hSGLT2) [%] | remaining activity at 5 µM (SGLT1) [%] | remaining activity at 50 µM (SGLT1) [%] | further results
CCCCN1CCCCC1C(=O)Nc1c(C)cc(C)cc1C (stereo not drawn) | 73 | 50 | 80 | 44 | –
CCN(CC)CCC(O)(c1ccccc1)C1CCCCC1 (stereo not drawn) | – | – | – | – | activity (hSGLT2): 69%; SGLT2/SGLT1 ACTIVITY RATIO 5 uM Mean (hSGLT2): 0.952; activity (SGLT1): 72%
Cc1cc(C)c(NC(=O)C2CCCCN2C2CCCCC2)c(C)c1 (stereo not drawn) | 81 | 52 | 92 | 58 | –
CN1CCC(C#N)(c2ccccc2)CC1 | 105 | 102 | 109 | 105 | –
CC(=O)OC(C)(C)C1Cc2cc3ccc(=O)oc3cc2O1 (stereo not drawn) | – | – | – | – | activity (hSGLT2): 101%; SGLT2/SGLT1 ACTIVITY RATIO 5 uM Mean (hSGLT2): 1.0; activity (SGLT1): 106%
c1coc(-c2nnc([C@H]3CCN(C4CCCCC4)C3)o2)c1 | 98 | 89 | 122 | 98 | –
CN1CC[C@H](c2nc3ccccc3s2)C1 | 104 | 112 | 116 | 116 | –
CN1CCC(N2CC[C@H](c3nc4ccccc4o3)C2)CC1 | 102 | 106 | 117 | 114 | –
Fc1ccccc1CN1CC[C@H](c2nnc(-c3ccco3)o2)C1 | 100 | 94 | 117 | 117 | –
Cn1c(CO[C@H]2CN(Cc3ccncc3F)C[C@H]2F)nc2ccccc21 | 99 | 99 | 115 | 115 | –
CN1CCC(N2CC[C@H](c3nc4cc(Cl)ccc4o3)C2)CC1 | 101 | 85 | 116 | 115 | –
Fc1ccc(-c2noc([C@@H]3CCCN3Cc3ccccc3F)n2)nc1 | 110 | 91 | 125 | 105 | –
CC(=O)OC1C(OC(=O)C2(C)OC2C)c2c(ccc3ccc(=O)oc23)OC1(C)C (stereo not drawn) | – | – | – | – | activity (hSGLT2): 90%; SGLT2/SGLT1 ACTIVITY RATIO 5 uM Mean (hSGLT2): 0.9; activity (SGLT1): 102%
Oc1c(Cl)cc(Cl)c2cccnc12 | 114 | 91 | 115 | 57 | –
Oc1c(I)cc(I)c2cccnc12 | 107 | 107 | 109 | 106 | –
C=CC(C)(O)CC/C=C(\C)C(=O)OC1C(O)C(CO)OC(OC(=O)C23CCC(C)(C)CC2C2=CCC4C5(C)CCC(OC6OC(COC7OCC(OC(C)=O)C(O)C7OC7OC(COC(C)=O)C(O)C(O)C7O)C(O)C(O)C6O)C(C)(C)C5CCC4(C)C2(C)C(O)C3O)C1OC1OCC(OC2OCC(O)C(OC3OCC(O)C(O)C3O)C2O)C(O)C1O (stereo not drawn) | 111 | 71 | 112 | 54 | –
c1ccc(CO[C@H]2COCCN(Cc3ccccn3)C2)cc1 | – | – | – | – | activity (hSGLT2): 110%; SGLT2/SGLT1 ACTIVITY RATIO 5 uM Mean (hSGLT2): 0.9; activity (SGLT1): 120%
Cc1nc(-c2cccs2)cc([C@H]2CN3CC[C@H]2C[C@@H]3CO)n1 | 110 | 103 | 120 | 115 | –
O[C@@H]1CCCC[C@H]1N1CCC(c2ccccc2)CC1 (racemic) [vesamicol, reference compound] | 91 | 71 | 93 | 51 | SGLT1/2 inhibition stated in words (SGLT1): showed SGLT1/2 inhibition

Structure (SMILES) | remaining activity at 5 µM (hSGLT2) [%] | remaining activity at 50 µM (hSGLT2) [%] | remaining activity at 5 µM (SGLT1) [%] | remaining activity at 50 µM (SGLT1) [%] | further results
CC1(C)Oc2ccc3ccc(=O)oc3c2[C@H](O)[C@@H]1O (relative stereo) [cis‐khellactone] | – | – | – | – | SGLT2 inhibition (hSGLT2; mean inhibition with 50 μmol/L inhibitor): no SGLT inhibition; SGLT1 inhibition (SGLT1): no SGLT inhibition
c1ccc(CN2CCCCC2)cc1 [1-Benzylpiperidine] | 94 | 93 | 109 | 102 | –
OC1(c2ccccc2)CCNC2CCCCC21 (stereo not drawn) [4-Phenyldecahydro-4-quinolinol] | 94 | 81 | 98 | 97 | –
c1ccc(C23CCN(CC2)CC3)cc1 [4-Phenylquinuclidine] | 81 | 60 | 96 | 72 | –
CC1(C)Oc2ccc3ccc(=O)oc3c2C[C@H]1O [(+)-Lomatin] | – | – | – | – | activity (hSGLT2): 115%; SGLT2/SGLT1 ACTIVITY RATIO 5 uM Mean (hSGLT2): 0.9; activity (SGLT1): 124%
C1CCN2C[C@H]3C[C@H](CN4CCCC[C@@H]34)[C@H]2C1 [(+)-Sparteine] | – | – | – | – | SGLT2/SGLT1 ACTIVITY RATIO, first concentration (hSGLT2): 1.0; SGLT2/SGLT1 ACTIVITY RATIO, second concentration (hSGLT2): 1.0
C/C=C(\C)C(=O)O[C@H]1[C@@H](OC(C)=O)c2c(ccc3ccc(=O)oc23)OC1(C)C [(+)‐praeruptorin A] | – | – | – | – | SGLT2/SGLT1‐50μmol/L (ratio of SGLT2 to SGLT1 activities with 50 μmol/L inhibitor) (SGLT1): 2
C1CCN2C[C@@H]3C[C@@H](CN4CCCC[C@@H]34)[C@H]2C1 [(-)-Sparteine] | – | – | – | – | SGLT2/SGLT1 ACTIVITY RATIO, first concentration (hSGLT2): 1.0; SGLT2/SGLT1 ACTIVITY RATIO, second concentration (hSGLT2): 0.9
CCCCCCCCCCCCN(C)C [Dimethyldodecylamine] | – | – | – | – | SGLT2/SGLT1 ACTIVITY RATIO, first concentration (hSGLT2): 0.9; SGLT2/SGLT1 ACTIVITY RATIO, second concentration (hSGLT2): 1.0
CN(C)CCCN1c2ccccc2CCc2ccccc21 [Imipramine HCl] | – | – | – | – | SGLT2/SGLT1 ACTIVITY RATIO 5 uM Mean (hSGLT2): 0.743
C/C=C(/C)C(=O)O[C@H]1C[C@@](C)(O)C(=O)[C@@H](OC(=O)/C(C)=C\C)[C@@]2(C)CC[C@@](O)(C(C)C)[C@H]12 [Laserpitin] | – | – | – | – | SGLT2/SGLT1 ACTIVITY RATIO, first concentration (hSGLT2): 1.0; SGLT2/SGLT1 ACTIVITY RATIO, second concentration (hSGLT2): 1.0
CN(C)CCOC(C)(c1ccccc1)c1ccccc1 [Moxastine HCl] | – | – | – | – | SGLT2/SGLT1 ACTIVITY RATIO 5 uM Mean (hSGLT2): 0.9
OC(CCN1CCCCC1)(c1ccccc1)C1CC2C=CC1C2 (stereo not drawn) [biperiden, reference compound] | – | – | – | – | SGLT1/2 inhibition stated in words (SGLT1): novel SGLT1/2 inhibitors
CNCCCN1c2ccccc2CCc2ccccc21 [desipramine, reference compound] | – | – | – | – | SGLT2/SGLT1‐50μmol/L (ratio of SGLT2 to SGLT1 activities with 50 μmol/L inhibitor) (SGLT1): 0.5; SGLT1 inhibition (SGLT1): no inhibition
CN(C)CCCN1c2ccccc2CCc2ccccc21 [imipramine, reference compound] | – | – | – | – | SGLT2/SGLT1‐50μmol/L (ratio of SGLT2 to SGLT1 activities with 50 μmol/L inhibitor) (SGLT1): 0.4; inhibition at 50 µM (SGLT1): 24%
Cc1cccc(C)c1NC(=O)C1CCCCN1C (stereo not drawn) [mepivacaine, reference compound] | – | – | – | – | inhibition at 50 µM (SGLT1): 11%
NC(=O)C1CCCN1C(=O)C(CCC(=O)O)NC(=O)C1CCC(=O)N1 (stereo not drawn) [pGlu-Glu-Pro-Amide] ([pGlu]-Glu-Pro-NH2; configuration not given here) | – | – | – | – | SGLT2/SGLT1 ACTIVITY RATIO, first concentration (hSGLT2): 1.0; SGLT2/SGLT1 ACTIVITY RATIO, second concentration (hSGLT2): 1.0
CC=C(C)C(=O)O[C@H]1[C@@H](OC(C)=O)c2c(ccc3ccc(=O)oc23)OC1(C)C [praeruptorin C] | – | – | – | – | activity (SGLT1): 90%
OC(CCN1CCCC1)(c1ccccc1)C1CCCCC1 (stereo not drawn) [procyclidine, reference compound] | – | – | – | – | SGLT1/2 inhibition stated in words (SGLT1): novel SGLT1/2 inhibitors
